US20050050587A1, “Inducers of plant disease resistance” (priority 2003, published 2005)

What was measured:
Format in all cases: in vivo, Nicotiana tabacum (Xanthi nc)
PR-1a protein [1] = assay: Induction and quantification of PR-1a protein after leaf infiltration of tobacco; conditions: for PR-1a induction, result in words: leaf infiltration; for PR-1a protein following treatment, 96 h / PR-1a protein following treatment, 192 h: compared to 1 mM SA at 96 h
Protocol: (§1) Tobacco (Nicotiana tabacum) plants (Xanthi nc) were grown in Promix PGX at 25 C and a 16/8 h photoperiod. Plants were fed a 1 g/L concentration of 20-20-20 (N-P-K fertilizer) twice a week. The Xanthi-nc variety carries the N-gene for resistance to TMV.
For evaluating pathogenesis-related protein induction, test compounds were dissolved in ethanol and dispersed in water (0.1% v/v ethanol). The most recently fully-expanded leaf on each plant was selected for infiltration. Infiltration was accomplished using a 5 mL disposable syringe (without needle). The solution was forced through the stomates of the abaxial surface of the leaf. Treatment solution was infiltrated into the leaf until the leaf was saturated.
All harvests were performed 96 hours after infiltration unless indicated. Briefly, treated leaves were de-veined, the remaining tissue was cut into 1 cm×1 cm pieces and vacuum-infiltrated with ice-cold extraction buffer. […] The extracellular fluid containing the acidic PR-1a protein was collected by centrifugation at 1000 g for 10 minutes at 4° C. After collection, samples were stored at −80° C. Protein concentrations of extracellular fluids were determined by Bradford dye reagent (BioRad, Richmond, Calif.) used BSA as a standard. Eight to ten μg of each protein sample were analyzed by electrophoresis on 14% Native Polyacrylamide gels (14% pre-cast Tris-Glycine gels; Invitrogen, Carlsbad, Calif.). Gels were stained with colloidal blue staining reagent (Invitrogen), and PR-1a protein was quantitated using a Model GS-710 densitometer (BioRad).

[2] = test system: tobacco mosaic virus (TMV); assay: Resistance measurement: TMV lesion diameter after spray application; conditions: for Percent decrease in TMV-lesion diameter: percent reduction in the diameter of TMV lesions
Protocol: as §1
(§2) Test compounds were dissolved in ETOH and dispersed in water (0.1% v/v ethanol). Spray solutions were amended with 0.25% crop oil concentrate (v/v). Plants were sprayed to drip, and moved to a glasshouse.
After spraying, one leaf per plant was inoculated with 1.0 ug TMV (U1; vulgare strain) at the times indicated. Six days post-inoculation, leaves were removed and the diameters of 20 necrotic lesions were measured per leaf. The mean lesion diameters from at least four plants per treatment were measured. Lesion diameter measures were subjected to two way analysis of variance (ANOVA) and Duncan's multiple range procedure at p=0.05.

PR-1a protein [3] = assay: Induction of PR-1a protein in Xanthi-nc tobacco after spray application; conditions: which equals 1
Protocol: Tobacco (Nicotiana tabacum) plants (Xanthi nc) were grown in Promix PGX at 25 C and a 16/8 h photoperiod. Plants were fed a 1 g/L concentration of 20-20-20 (N-P-K fertilizer) twice a week. The Xanthi-nc variety carries the N-gene for resistance to TMV. Plants were treated with chemicals and/or virus at 5-6 weeks after sowing, when they had 5-7 fully-expanded leaves.
Proteins were harvested by the method of Yalpani et al. (1991; Plant Cell. 3:809-818). All harvests were performed 96 hours after infiltration unless indicated. Briefly, treated leaves were de-veined, the remaining tissue was cut into 1 cm×1 cm pieces and vacuum-infiltrated with ice-cold extraction buffer. Leaf tissue was blotted to remove excess buffer, and placed in a spin column assembly (Yalpani et al., 1991). The extracellular fluid containing the acidic PR-1a protein was collected by centrifugation at 1000 g for 10 minutes at 4° C. After collection, samples were stored at −80° C. Protein concentrations of extracellular fluids were determined by Bradford dye reagent (BioRad, Richmond, Calif.) used BSA as a standard. Eight to ten μg of each protein sample were analyzed by electrophoresis on 14% Native Polyacrylamide gels (14% pre-cast Tris-Glycine gels; Invitrogen, Carlsbad, Calif.). Gels were stained with colloidal blue staining reagent (Invitrogen), and PR-1a protein was quantitated using a Model GS-710 densitometer (BioRad).
as §2

[4] = 1 mM spray 48 h before TMV inoculation
[5] = 1 mM spray 96 h before TMV inoculation

Molecule | PR-1a induction, result in words (PR-1a protein [1]) | Percent decrease in TMV-lesion diameter [2] [%] | also measured
O=C(O)c1ccccc1F [2-Fluorobenzoic acid] | significantly reduced activity |  | 
O=C(O)c1c(O)c(Cl)cc(Cl)c1Cl [3,5,6-Trichlorosalicylic acid] |  | 45.1 | 
O=C(O)c1c(O)c(Cl)cc(Cl)c1O [3,5-Dichloro-6-hydroxysalicylic acid] |  | 48.3 | 
O=C(O)c1cc(Cl)cc(Cl)c1O [3,5-Dichlorosalicylic acid, reference compound] | showed the greatest induction of PR-1a | 36.6 | PR-1a protein following treatment, 96 h (PR-1a protein [1]; 1 mM, which equals 1): 1.83; PR-1a protein following treatment, 192 h (PR-1a protein [1]; 1 mM, which equals 1): 4.66
O=C(O)c1cc(F)cc(F)c1O [3,5-Difluorosalicylic acid] | more induction at 96 hours than the corresponding chlorinated salicylates | 55.0 | Lesion diameter [2, 4]: 2.04 AB mm; Lesion diameter [2, 5]: 1.85 A mm; Reduction of TMV-lesion size / resistance to TMV, result in words ([2]; spray application): statistically equal to that induced by 5 mM Salicylic acid; PR-1a protein following treatment, 96 h (PR-1a protein [1]; 1 mM, which equals 1): 3.64; PR-1a protein following treatment, 192 h (PR-1a protein [1]; 1 mM, which equals 1): 3.21
O=C(O)c1cc([N+](=O)[O-])cc([N+](=O)[O-])c1O [3,5-Dinitrosalicylic acid] | completely deactivated |  | Mean PR Induction (relative induction of PR-1a protein) (PR-1a protein [1]; 1 mM, 96 h post infiltration, compared to 1 mM SA, which equals 1): 0
O=C(O)c1cc(F)cc(Cl)c1O [3-Chloro-5-fluorosalicylic acid] |  | 34 | 
O=C(O)c1cccc(Cl)c1O [3-Chlorosalicylic acid] |  | 55.1 | 
O=C(O)c1cc(Cl)cc(F)c1O [3-Fluoro-5-chlorosalicylic acid] |  | 47.4 | 
O=C(O)c1cccc(F)c1O [3-Fluorosalicylic acid] |  | 34.4 | 
O=C(O)c1ncccc1O [3-Hydroxypicolinic acid] | induced PR-1a accumulation more than equimolar SA |  | 
COc1cccc(C(=O)O)c1O [3-Methoxysalicylic acid] |  | 8.9 | 
O=C(O)c1cccc([N+](=O)[O-])c1O [3-Nitrosalicylic acid] | decreased activity |  | 
Nc1ccc(C(=O)O)c(O)c1 [4-Aminosalicylic acid] |  | 22.9 | 
O=C(O)c1ccc(Cl)cc1O [4-Chlorosalicylic acid, reference compound] |  | 30.2 | 
O=C(O)c1ccc(F)cc1O [4-Fluorosalicylic acid] |  | 36.2 | 
COc1ccc(C(=O)O)c(O)c1 [4-Methoxysalicylic acid] |  | 17.6 | 
O=C(O)c1cc(Cl)ccc1O [5-Chlorosalicylic acid, reference compound] |  | 38.7 | PR-1a protein following treatment, 96 h (PR-1a protein [1]; 1 mM, which equals 1): 1.02; PR-1a protein following treatment, 192 h (PR-1a protein [1]; 1 mM, which equals 1): 1.75
O=C(O)c1cc(F)ccc1O [5-Fluorosalicylic acid] | more induction at 96 hours than the corresponding chlorinated salicylates | 38.0 | PR-1a protein following treatment, 96 h (PR-1a protein [1]; 1 mM, which equals 1): 1.30; PR-1a protein following treatment, 192 h (PR-1a protein [1]; 1 mM, which equals 1): 1.74
COc1ccc(O)c(C(=O)O)c1 [5-Methoxysalicylic acid] |  | 9.7 | 
O=C(O)c1cc([N+](=O)[O-])ccc1O [5-Nitrosalicylic acid] | decreased activity |  | 
O=C(O)c1c(O)cccc1F [6-Fluorosalicylic acid] |  | 24.3 | 
COc1cccc(O)c1C(=O)O [6-Methoxysalicylic acid] |  | 13.3 | 
O=C(O)c1ccccc1 [Benzoic acid] | unable to induce PR-1a accumulation |  | 
CCOC(=O)C(C)OC(=O)c1cc(Oc2ccc(C(F)(F)F)cc2Cl)ccc1[N+](=O)[O-] (centres unmarked) [Lactofen, 1-(carboxyethoxy) ethyl 5-[2-chloro-4-(tri-fluoromethyl)phenoxy]-2-nitrobenzoate] |  |  | PR-1a (relative induction) (PR-1a protein [3]; 290 ppm Lactofen, harvested 96 hours after spray application, compared to 1 mM SA): 0.44; PR-1a (relative induction) (PR-1a protein [3]; 1450 ppm Lactofen, harvested 96 hours after spray application, compared to 1 mM SA): 2.00
O=C([O-])c1ccccc1O.[Na+] [NaSA, sodium salicylate] |  |  | Lesion diameter ([2]; NaSA 1600 mg/l, 48 hours after application): 1.17 B mm; Lesion diameter ([2]; NaSA 1600 mg/l, 96 hours after application): 1.75 AB mm; PR-1a (relative induction) (PR-1a protein [3]; 1600 ppm NaSA, harvested 96 hours after spray application, compared to 1 mM SA): 1.00; PR-1a (relative induction) (PR-1a protein [3]; 8000 ppm NaSA, harvested 96 hours after spray application, compared to 1 mM SA): 4.56; PR-1a (relative induction) (PR-1a protein [3]; NaSA 1600 mg/l, 48 hours after application, compared to infiltration with 1 mM SA at 96 h): 0.34; PR-1a (relative induction) (PR-1a protein [3]; NaSA 1600 mg/l, 96 hours after application, compared to infiltration with 1 mM SA at 96 h): 1.02
O=C(O)c1ccccc1O [Salicylic acid, reference compound] |  |  | Lesion diameter [2, 4]: 2.20 BC mm; Lesion diameter [2, 5]: 2.52 B mm; Lesion diameter ([2]; 5 mM spray 48 h before TMV inoculation): 1.88 A mm; Lesion diameter ([2]; 5 mM spray 96 h before TMV inoculation): 1.68 A mm; PR-1a protein following treatment, 96 h (PR-1a protein [1]; 1 mM, which equals 1): 1.00; PR-1a protein following treatment, 192 h (PR-1a protein [1]; 1 mM, which equals 1): 1.46
O=C(O)c1ccccc1S [Thiosalicylic acid] | significantly reduced activity |  | 
Salicylic acid/Sodiumsalicylate [reference compound] |  | 30.1 | Mean PR Protein Induction (PR-1a protein [1]; 1 mM, 96 h post infiltration, compared to 1 mM SA, which equals 1 (Table 5)): 1.0
